8 compounds from patent US20250057859A1, “CANNABICHROMENEQUINONE AND ANALOGUES THEREOF, AND METHOD OF USING COMPOSITIONS THEREOF AS ANTI-INFLAMMATORY AGENTS” (Juva Life, Inc., priority 2021, published 2025) can be followed below.

Experiment [1] concerns IL-10. As to the kind of experiment: IL-10 secretion assay in human PBMCs (PHA-M-stimulated, ELISA). The experiment is classed as cell-based. Conditions: PBMC, PHA-M 10 ug/mL 40 hr, read-out: IL10 inhibitory activity IC50. As for the experimental part: Fetal bovine serum (FBS) was obtained from ThermoFisher (Cat #16000044). • Other reagents: 96well TC plates were obtained from ThermoFisher (Cat #07-2000-90).
Cryopreserved PBMCs were thawed in a water bath and transferred to 50 mL polypropylene tubes. The cells were washed two times with 25 mL of RPMI medium supplemented with 5% of regular FBS and re-suspended at a density of 1.5×10^6 cells/mL. The cells were plated into 96 well TC plate (100 uL/well). Serially diluted compound was added to the cells in duplicate wells for each concentration. Control wells received DMSO only (0.3% final). The cells were pre-incubated with compound for 2 hr. After pre-incubation, the cells were stimulated by PHA-M (10 ug/mL) for 40 hr. Control samples with and without PHA-M in the absence of compound were assembled in each test plate. IL-10 was detected in media supernatants by using a sandwich anti-IL10 ELISA kit (BD Biosciences) according to protocol provided by the manufacturer. ELISA readout (optical density at 450 nm) is commensurable with the amount of IL-10 produced by the cells. Assay window was determined in each experiment by comparing average OD450 values in stimulated and un-stimulated samples in the absence of compound. ELISA calibration was performed in each detection plate using serially diluted recombinant human IL-10 standard to ensure that OD450 values for all test samples were within linear range of detection.%-Inhibition by compound was calculated using following equation:
[formula] • where OD450100% is optical density in control samples stimulated with PHA-M without compound, OD4500% is optical density in unstimulated control samples, and OD450compound is optical density in a sample stimulated with PHA-M in the presence of compound. The calculated %-Inh values were plotted against compound concentration. To determine IC50 values, dose-response curves were fitted by a 4-parameter sigmoid inhibition model using XLFit® software (IDBS).
(In general: In an ELISA, binding on a coated surface is turned into a signal by an enzyme label.)

Experiment [2] deals with TNFα. The experiment is described as follows: TNFa secretion assay in human PBMCs (LPS-stimulated, ELISA). Type of experiment: cell-based. Particulars: PBMC, LPS 100 ng/mL 6 hr, read-out: TNF inhibitory activity IC50. As to the method:
Fetal bovine serum (FBS) was obtained from ThermoFisher (Cat #16000044). • Other reagents: 96well TC plates were obtained from ThermoFisher (Cat #07-2000-90). LPS was obtained from Sigma (Cat #L3024).
TNF-alpha was assessed using a standard ELISA protocol. Cryopreserved PBMCs were thawed in a water bath and transferred to 50 mL polypropylene tubes. The cells were washed two times with 25 mL of RPMI medium supplemented with 5% of heat-inactivated FBS and re-suspended at a density of 4.5^10^6 cells/mL. The cells were plated into 96 well TC late (100 uL/well). Serially diluted compound was added to the cells in duplicate wells for each concentration. Control wells received DMSO only (0.3% final). The cells were pre-incubated with compound for 1 hr. After pre-incubation, the cells were stimulated by LPS (100 ng/mL) for 6 hr. Control samples with and without LPS in the absence of compound were assembled in each test plate. TNFa was detected in media supernatants by using a sandwich anti-TNFα ELISA kit (BD Biosciences) according to protocol provided by the manufacturer. ELISA readout (optical density at 450 nm) is commensurable with the amount of TNFα produced by the cells. Assay window was determined in each experiment by comparing average OD450 values in stimulated and un-stimulated samples in the absence of compound. ELISA calibration was performed in each detection plate using serially diluted recombinant human TNFα, to ensure that OD450 values for all test samples were within linear range of detection.%-Inhibition by compound was calculated using following equation:
[formula] • where OD450100% is optical density in control samples stimulated with LPS without compound, OD4500% is optical density in unstimulated control samples, and OD450compound is optical density in a sample stimulated with LPS in the presence of compound.
The calculated %-Inh values were plotted against compound concentration. To determine IC50 values, dose-response curves were fitted by a 4-parameter sigmoid inhibition model using XLFit® software (IDBS).

Molecules are shown by their SMILES.

As a reminder, the IC50 is the concentration that gives 50% inhibition. Regarding `CCCCCC1=CC(=O)C2=C(OC(C)(CCC=C(C)C)C=C2)C1=O` (stereo not shown) [Formula II], the 50% inhibitory concentration (IC50) in experiment [1] was found to be 0.78 µM; in experiment [2], 0.93 µM.
On the same counts, the results for `CCCCCc1cc(OC(C)=O)c2c(c1OC(C)=O)OC(C)(CCC=C(C)C)C=C2` (stereo not shown) [Formula XXIII] are 0.92 µM and 9.95 µM.
For `CCCCCc1cc(O)c2c(c1O)OC(C)(CCC=C(C)C)C=C2` (stereo not shown) [Formula XXII] the same measures were 0.92 µM and 9.2 µM.
On to `CCCCCc1cc(OC)c2c(c1OC)OC(C)(CCC=C(C)C)C=C2` (stereo not shown) [Formula XXIV], for which the results for the IC50 in experiment [1] and in experiment [2] were more than 10 µM and 10.6 µM, respectively.
Turning to `CCCCCC1=C(NCC)C(=O)C2=C(OC(C)(CCC=C(C)C)C=C2)C1=O` (stereo not shown) [Formula XXVIII], the concentration for half-maximal inhibition (IC50) in experiment [1] and in experiment [2] was more than 10 µM each time.
Regarding `CC(C)=CCCC1(C)C=CC2=C(O1)C(=O)c1ccccc1C2=O` (stereo not shown) [Formula XXVII], the half-maximal inhibitory concentration (IC50) in experiment [1] and in experiment [2] was more than 10 µM in each case.
With `CCCCCC1=CC(=O)C2=C(O[C@](C)(CCC=C(C)C)C=C2)C1=O` [Formula XXVI], the IC50 in experiment [1] stood at 0.38 µM; in experiment [2] it was 0.62 µM.
For `CCCCCC1=C(NCCC)C(=O)C2=C(OC(C)(CCC=C(C)C)C=C2)C1=O` (stereo not shown) [Formula XXV] the same measures were more than 10 µM and 9 µM.
